Data as given in patent US12042481B2, “Use of (1R,5S)-(+)-1-(naphthalen-2-yl)-3-azabicyclo[3.1.0]hexane in the treatment of conditions affected by monoamine neurotransmitters” (priority 2011, dated 2024).

Legend:
[1] = molecular target: T1, recombinant human DA transporter (Homo sapiens, UniProt Q01959); assay: Inhibition of [3H]dopamine uptake in CHO-K1 cells transfected with the DA uptake transporter; assay type: cell-based
T1 construct: host or cells: CHO-K1
Description: The ability of (1R,5S)-(+)-1-(naphthalen-2-yl)-3-azabicyclo[3.1.0]hexane for inhibiting transport of norepinephrine (NE) and/or dopamine (DA) and/or serotonin (5-HT) was evaluated using cell lines (such as the HEK 293 cell line) that stably express recombinant human NE, DA, and 5-HT transporters, respectively. Techniques for stably transfecting mammalian cell lines with neurotransmitter transporters and measuring the effects of drugs on amine uptake have been described in the literature (e.g., Eshleman A J, J Pharmacol Exp Ther 289:877-885, 1999) and are well known to those skilled in the art
Monoamine uptake was determined in MDCK, CHO-K1, and HEK-293 cell lines respectively transfected with NE, DA, and 5-HT uptake transporters by MDS Pharma Services (Taipei, Taiwan 112, R. O. C.). The cells were incubated in 5 mM Tris-HCl, and 7.5 mM HEPES buffer, pH 7.1, containing 120 mM NaCl, 5.4 mM KCl, 1.2 mM CaCl2, 1.2 mM MgSO4, 5 mM D-glucose, and 1 mM Ascorbic Acid. The cellular homogenates were incubated with radioligands and various concentrations of drugs for 10 minutes at 25° C. The [^3H]-radioligands incorporated into the cells were determined according to published methods using liquid scintillation counting (Perovic and Müller 1995; Eshleman et al., 1999). […]

[2] = test system: male CD-1 (Crl.) derived mice; assay: Mouse tail suspension test; assay type: in vivo
Description: The behavioral effects of (1R,5S)-(+)-1-(naphthalen-2-yl)-3-azabicyclo[3.1.0]hexane were evaluated in a model predictive of antidepressant activity, the mouse tail suspension test (Cryan and Mombereau, 2004).
For the tail test suspension test, male CD-1 (Crl.) derived mice weighing 20-26 g were provided by BioLasco Taiwan (Charles River Laboratories Technology Licensee). All animals were maintained in a controlled temperature (23° C.-24° C.) and humidity (60%-70%) environment with 12 hours light dark cycles for at least one week prior to use. For the tail suspension test, (1R,5S)-(+)-1-(naphthalen-2-yl)-3-azabicyclo[3.1.0]hexane was administered orally at dose from 10-40 mg/kg p.o. to groups of 10 CD-1 derived male mice by MDS Pharma Services, Taipei, Taiwan 112, R. O. C. (1R,5S)-(+)-1-(naphthalen-2-yl)-3-azabicyclo[3.1.0]hexane was dissolved in 2% Tween 80 and was administered at 10 ml/kg 60 minutes prior to the tail suspension test. During the test, the mice were suspended on the edge of a shelf 58 cm above a table top by adhesive tape placed approximately 1 cm from the tip of the tail. The duration of immobility was recorded for a period of 5 minutes (during 2-7 minutes of the tail suspension). The duration of the effects of (1R,5S)-(+)-1-(naphthalen-2-yl)-3-azabicyclo[3.1.0]hexane was also evaluated in the tail suspension test by varying pretreatment time.

rats = assay: Forced swim test in rats; assay type: in vivo, rat; details: 40 mg/kg p.o., data not shown

T1 sequence (Q01959 whole entry): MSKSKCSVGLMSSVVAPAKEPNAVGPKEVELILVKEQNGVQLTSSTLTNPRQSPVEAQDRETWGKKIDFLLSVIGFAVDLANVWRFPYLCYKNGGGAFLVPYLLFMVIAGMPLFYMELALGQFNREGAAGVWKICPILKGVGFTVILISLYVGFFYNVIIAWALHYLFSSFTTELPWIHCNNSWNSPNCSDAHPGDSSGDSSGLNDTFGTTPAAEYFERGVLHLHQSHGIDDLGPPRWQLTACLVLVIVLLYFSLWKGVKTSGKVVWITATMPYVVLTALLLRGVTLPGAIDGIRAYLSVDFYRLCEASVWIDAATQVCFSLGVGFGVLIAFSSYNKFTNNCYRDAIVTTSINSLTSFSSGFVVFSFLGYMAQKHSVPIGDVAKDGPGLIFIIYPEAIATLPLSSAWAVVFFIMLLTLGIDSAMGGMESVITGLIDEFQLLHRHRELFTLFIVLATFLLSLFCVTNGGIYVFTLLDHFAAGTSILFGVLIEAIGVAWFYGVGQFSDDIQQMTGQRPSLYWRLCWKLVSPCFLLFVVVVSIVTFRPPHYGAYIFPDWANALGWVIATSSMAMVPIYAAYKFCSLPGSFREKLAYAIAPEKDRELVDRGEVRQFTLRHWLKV

## c1ccc2cc([C@]34CNC[C@H]3C4)ccc2c1 [(1R,5S)-(+)-1-(naphthalen-2-yl)-3-azabicyclo[3.1.0]hexane]
[1]
  IC50: 38 nM
[2]; 20 mg/kg p.o., at 30 minutes
  immobility: 84 % of control
[2]; 20 mg/kg p.o., at 60 minutes
  immobility: 82 % of control
[2]; 20 mg/kg p.o., at 120 minutes
  immobility: 75 % of control
[2]; 20 mg/kg p.o., at 240 minutes
  immobility: 47 % of control
[2]; 40 mg/kg p.o., 60 minutes prior to test
  immobility: 87 % of control
[2]; oral
  duration of effect: over 4 hours
  efficacy compared with desipramine (30 mg/kg p.o.): equivalent to the tricyclic antidepressant desipramine
[2]; oral, 60 minutes prior to test
  minimal effective dose for reducing time immobilized: 20 mg/kg
rats
  immobility in the forced swim test: reduced immobility
